Where a name gives a salt, the structure may show the parent alone.

For `CCN1CC(CN)Oc2c(-c3ccccc3Cl)cccc21` (racemic) (as salt: hydrochloride) [Example 19, 1-[8-(2-Chlorophenyl)-4-ethyl-3,4-dihydro-2H-1,4-benzoxazin-2-yl]methanamine], the melting point – broadly, the temperature, or range, at which the solid turns liquid – was in the range of 105 to 106 °C.
In the case of `Cc1cc(Cl)ccc1-c1cccc2c1OC(CN)CN2` (racemic) (as salt: hydrochloride) [Example 20, 1-[8-(4-chloro-2-methylphenyl)-3,4-dihydro-2H-1,4-benzoxazin-2-yl]methanamine], the melting point lay in the range of 192 to 194 °C.
The compound `CCCN1CC(CN)Oc2c(-c3ccccc3Cl)cccc21` (racemic) (as salt: hydrochloride) [Example 21, 1-[8-(2-Chlorophenyl)-4-propyl-3,4-dihydro-2H-1,4-benzoxazin-2-yl]methanamine] showed a melting point of 83 to 85 °C.
Take `NCC1CNc2cccc(-c3ccccc3C(F)(F)F)c2O1` (racemic) (as salt: hydrochloride) [Example 22, 1-{8-[2-(Trifluoromethyl)phenyl]-3,4-dihydro-2H-1,4-benzoxazin-2-yl}methanamine]: the melting point lay in the range of 185 to 187 °C.
As to `NCC1CNc2cccc(-c3ccc(C(F)(F)F)cc3C(F)(F)F)c2O1` (racemic) (as salt: hydrochloride) [Example 23, 1-{8-[2,4-Bis(trifluoromethyl)phenyl]-3,4-dihydro-2H-1,4-benzoxazin-2-yl}methanamine], the melting point lay within 192 to 194 °C.
In the case of `COc1ccc(-c2cccc3c2OC(CN)CN3)c(C)c1` (racemic) (as salt: hydrochloride) [Example 24, 1-[8-(4-Methoxy-2-methylphenyl)-3,4-dihydro-2H-1,4-benzoxazin-2-yl]methanamine], the melting point was 230 to 232 °C.
With `NCC1COc2cc(Cl)cc(-c3ccccc3C(F)(F)F)c2N1` (racemic) (as salt: hydrochloride) [Example 25, 1-{7-Chloro-5-[2-(trifluoromethyl)phenyl]-3,4-dihydro-2H-1,4-benzoxazin-3-yl}methanamine], the melting point is 102 °C (dec.).
For `COc1ccc(-c2cc(Cl)cc3c2NC(CN)CO3)cc1` (racemic) (as salt: hydrochloride) [Example 26, 1-[7-Chloro-5-(4-methoxyphenyl)-3,4-dihydro-2H-1,4-benzoxazin-3-yl]methanamine], the melting point is 101 °C (dec.).
As for `COc1ccc(-c2cc(Cl)cc3c2NC(CN)CO3)c(C)c1` (racemic) (as salt: hydrochloride) [Example 27, 1-[7-chloro-5-(4-methoxy-2-methylphenyl)-3,4-dihydro-2H-1,4-benzoxazin-3-yl]methanamine], the figure is 98 °C (dec.).
As for `COc1ccc(-c2cc(Cl)cc3c2N(C)C(CN)CO3)c(C)c1` (racemic) (as salt: hydrochloride) [Example 28, 1-[7-chloro-5-(4-methoxy-2-methylphenyl)-4-methyl-3,4-dihydro-2H-1,4-benzoxazin-3-yl]methanamine], the figure is 106 °C (dec.); as for `NCC1COc2cc(Cl)cc(-c3ccccc3)c2N1` (racemic) (as salt: hydrochloride) [Example 29, 1-(7-chloro-5-phenyl-3,4-dihydro-2H-1,4-benzoxazin-3-yl)methanamine], 92 °C (dec.); as for `Cc1ccccc1-c1cc(Cl)cc2c1NC(CN)CO2` (racemic) (as salt: hydrochloride) [Example 30, 1-[7-chloro-5-(2-methylphenyl)-3,4-dihydro-2H-1,4-benzoxazin-3-yl]methanamine], 86 °C (dec.).
In the case of `Cc1ccc(-c2cc(Cl)cc3c2NC(CN)CO3)c(C(F)(F)F)c1` (racemic) (as salt: hydrochloride) [Example 31, 1-{7-chloro-5-[4-methyl-2-(trifluoromethyl)phenyl]-3,4-dihydro-2H-1,4-benzoxazin-3-yl}methanamine], the melting point was 98 °C (dec.).
On to `COc1ccc(-c2cc(Cl)cc3c2NC(CN)CO3)c(Cl)c1` (racemic) (as salt: hydrochloride) [Example 32, 1-[7-chloro-5-(2-chloro-4-methoxyphenyl)-3,4-dihydro-2H-1,4-benzoxazin-3-yl]methanamine], for which the melting point was 105 °C (dec.).
As for `NCC1COc2cc(Cl)cc(-c3ccccc3F)c2N1` (racemic) (as salt: hydrochloride) [Example 33, 1-[7-chloro-5-(2-fluorophenyl)-3,4-dihydro-2H-1,4-benzoxazin-3-yl]methanamine], the figure is 95 °C (dec.); as for `COc1ccccc1-c1cc(Cl)cc2c1NC(CN)CO2` (racemic) (as salt: hydrochloride) [Example 34, 1-[7-chloro-5-(2-methoxyphenyl)-3,4-dihydro-2H-1,4-benzoxazin-3-yl]methanamine], 100 °C (dec.); as for `Cc1cc(Cl)ccc1-c1cc(Cl)cc2c1NC(CN)CO2` (racemic) (as salt: hydrochloride) [Example 35, 1-[7-chloro-5-(4-chloro-2-methylphenyl)-3,4-dihydro-2H-1,4-benzoxazin-3-yl]methanamine], 102 °C (dec.).
In the case of `NCC1COc2cc(Cl)cc(-c3ccccc3Cl)c2N1` (racemic) (as salt: hydrochloride) [Example 36, 1-[7-chloro-5-(2-chlorophenyl)-3,4-dihydro-2H-1,4-benzoxazin-3-yl]methanamine], the melting point is 108 °C (dec.).
With `NCC1COc2cc(Cl)cc(-c3ccc(Cl)cc3C(F)(F)F)c2N1` (racemic) (as salt: hydrochloride) [Example 37, 1-{7-chloro-5-[4-chloro-2-(trifluoromethyl)phenyl]-3,4-dihydro-2H-1,4-benzoxazin-3-yl}methanamine], the melting point was 95 °C (dec.).
For `NCC1COc2cc(Cl)cc(-c3ccc(C(F)(F)F)cc3C(F)(F)F)c2N1` (racemic) (as salt: hydrochloride) [Example 38, 1-{5-[2,4-bis(trifluoromethyl)phenyl]-7-chloro-3,4-dihydro-2H-1,4-benzoxazin-3-yl}methanamine], the melting point was 98 °C (dec.).
As for `NCC1COc2cc(F)cc(-c3ccccc3C(F)(F)F)c2N1` (racemic) (as salt: hydrochloride) [Example 55, 1-{7-fluoro-5-[2-(trifluoromethyl)phenyl]-3,4-dihydro-2H-1,4-benzoxazin-3-yl}methanamine], the melting point is 99 °C (dec.).
In the case of `COc1ccc(-c2cc(F)cc3c2NC(CN)CO3)c(C)c1` (racemic) (as salt: hydrochloride) [Example 56, 1-[7-fluoro-5-(4-methoxy-2-methylphenyl)-3,4-dihydro-2H-1,4-benzoxazin-3-yl]methanamine], the melting point is 82 °C (dec.).
Take `NCC1COc2cc(F)cc(-c3ccccc3Cl)c2N1` (racemic) (as salt: hydrochloride) [Example 57, 1-[5-(2-chlorophenyl)-7-fluoro-3,4-dihydro-2H-1,4-benzoxazin-3-yl]methanamine]: the melting point was 86 °C (dec.).
Regarding `Cc1ccccc1-c1cc(F)cc2c1NC(CN)CO2` (racemic) (as salt: hydrochloride) [Example 58, 1-[7-fluoro-5-(2-methylphenyl)-3,4-dihydro-2H-1,4-benzoxazin-3-yl]methanamine], the melting point was 78 °C (dec.).
On to `COc1ccc(-c2cc(F)cc3c2NC(CN)CO3)c(Cl)c1` (racemic) (as salt: hydrochloride) [Example 59, 1-[5-(2-chloro-4-methoxyphenyl)-7-fluoro-3,4-dihydro-2H-1,4-benzoxazin-3-yl]methanamine], for which the melting point was 84 °C (dec.).
Under `Cc1ccc(-c2cc(F)cc3c2NC(CN)CO3)c(C(F)(F)F)c1` (racemic) (as salt: hydrochloride) [Example 60, 1-{7-fluoro-5-[4-methyl-2-(trifluoromethyl)phenyl]-3,4-dihydro-2H-1,4-benzoxazin-3-yl}methanamine] stands 86 °C (dec.).
Under `COc1ccc(-c2cc(F)cc3c2NC(CN)CO3)cc1` (racemic) (as salt: hydrochloride) [Example 61, 1-[7-fluoro-5-(4-methoxyphenyl)-3,4-dihydro-2H-1,4-benzoxazin-3-yl]methanamine] stands 72 °C (dec.); under `NCC1COc2cc(F)cc(-c3ccccc3F)c2N1` (racemic) (as salt: hydrochloride) [Example 62, 1-[7-fluoro-5-(2-fluorophenyl)-3,4-dihydro-2H-1,4-benzoxazin-3-yl]methanamine], 77 °C (dec.); under `Cc1cc(Cl)ccc1-c1cc(F)cc2c1NC(CN)CO2` (racemic) (as salt: hydrochloride) [Example 63, 1-[5-(4-chloro-2-methylphenyl)-7-fluoro-3,4-dihydro-2H-1,4-benzoxazin-3-yl]methanamine], 90 °C (dec.).
Regarding `COc1ccccc1-c1cc(F)cc2c1NC(CN)CO2` (racemic) (as salt: hydrochloride) [Example 64, 1-[7-fluoro-5-(2-methoxyphenyl)-3,4-dihydro-2H-1,4-benzoxazin-3-yl]methanamine], the melting point was 84 °C (dec.).
For the compound `NCC1COc2cc(F)cc(-c3cccc(Cl)c3)c2N1` (racemic) (as salt: hydrochloride) [Example 65, 1-[5-(3-chlorophenyl)-7-fluoro-3,4-dihydro-2H-1,4-benzoxazin-3-yl]methanamine], the melting point was 76 °C (dec.).
As for `CN1CC(CN)Oc2c(-c3cccc(Cl)c3)cccc21` (racemic) (as salt: hydrochloride) [Example 66, 1-[8-(3-chlorophenyl)-4-methyl-3,4-dihydro-2H-1,4-benzoxazin-2-yl]methanamine], the melting point is 134 °C (dec.).

Values taken from patent publication US20100035871A1, “BENZOXAZINE DERIVATIVES AND USES THEREOF” (priority 2006, published 2010).
